Reference: US11241475B2, “Preventive and/or therapeutic agent for osteogenesis imperfecta and other diseases” (Pharma Foods International Co., Ltd., priority 2016, dated 2022)
No end group written: not given here.

Assays:
[1] = Effect on body weight (Example 7); format: in vivo; settings: rats, days 1, 3, 5 and 7; peptide 1, 10 or 100 mg/kg/day oral, hGH 500 μg/kg/day subcutaneous; FIG. 24
Method: The synthetic peptide No. 1 or water for injection (control) was administered to male Crlj:WI rats at the age of four weeks by oral gavage using a gastric tube once a day for seven days (n=10 in each group). The dosage of the synthetic peptide was 1, 10 or 100 mg/kg/day. As a positive control, human growth hormone (hGH) (Norditropin, Japan Standard Commodity Classification Number: 872412) was subcutaneously administered at 500 μg/kg/day once a day for seven days. The body weight was measured on days 1, 3, 5 and 7 of administration.

[2] = Digestion test using artificial gastric juice (Example 11); format: in vitro ADME; settings: 10 mg in 1 mL, pepsin, pH 3.0, 37° C., 60 and 120 minutes, HPLC; FIG. 35
Method: A test using artificial gastric juice was performed on the synthetic peptide No. 1. Ten milligrams of the synthetic peptide No. 1 was dissolved in 1 mL of artificial gastric juice (0.2% NaCl, 0.32% pepsin, 2.4% diluted hydrochloric acid, adjusted to pH 3.0), and the mixture was allowed to react under shaking at 37° C. Samples were collected before the reaction and 60 and 120 minutes after the reaction, and subjected to HPLC [column: ODS column (size: diameter 46 mm×500 mm, SHIMADZU); mobile phase: (A) 0.05% TFA, (B) 90% acetonitrile/0.05% TFA; gradient: 2% B (0 min), 20% B (50 min), 100% B (50.1 min), 100% B (55 min); detection: UV 215 nm] to examine whether the synthetic peptide No. 1 was decomposed by the gastric juice (resistance to the gastric juice).

[3] = Digestion test using artificial intestinal juice (Example 11); format: in vitro ADME; settings: 10 mg in 1 mL, pancreatin, pH 6.8, 37° C., 120 minutes and overnight, HPLC; FIG. 36
Method: Ten milligrams of the synthetic peptide No. 1 was dissolved in 1 mL of artificial intestinal juice (0.34% KH2PO4, 0.36% Na2HPO4, 1% pancreatin, adjusted to pH 6.8), and the mixture was allowed to react under shaking at 37° C. Samples were collected before the reaction, 120 minutes after the reaction and after overnight reaction, and subjected to HPLC [column: ODS column (size: diameter 46 mm×500 mm, SHIMADZU); mobile phase: (A) 0.05% TFA, (B) 90% acetonitrile/0.05% TFA; gradient: 2% B (0 min), 20% B (50 min), 100% B (50.1 min), 100% B (55 min); detection: UV 215 nm] to examine whether the synthetic peptide No. 1 was decomposed by the intestinal juice (resistance to the intestinal juice).

decomposition by artificial gastric juice (resistance to the gastric juice) [2]: not decomposed
Sequence: VNPESEEE [synthetic peptide No. 1, Val-Asn-Pro-Glu-Ser-Glu-Glu-Glu]
change in the body weight [1]: No significant change
decomposition by artificial intestinal juice (resistance to the intestinal juice) [3]: totally decomposed into a peptide having the sequence of the synthetic peptide No. 2
